# Measurements reported in ChEMBL document CHEMBL1201862, “PubChem BioAssay data set” (2004).
# Active and inactive are the calls of the source.
# Experiments:
# Ephrin type-A receptor 4 = Ephrin type-A receptor 4 (Mus musculus, UniProt Q03137); assay: inhibitors of EphA4 binding to KYL peptide, primary screen, biochemical, colorimetric, mouse EphA4 (AID 689); format: functional
# [1] = biological target: Melanin-concentrating hormone receptor 1 (Homo sapiens, UniProt Q99705); assay: Fluorescence-based counterscreen for antagonists of the G-protein coupled receptor 7 (GPR7): cell-based high throughput dose response assay to identify antagonists of the melanin-concentrating hormone receptor 1 (MCHR1).; format: functional
# [2] = biological target: T1, Neuropeptides B/W receptor type 1 (Homo sapiens, UniProt P48145); assay: Fluorescence-based dose response cell-based high throughput screening assay to identify antagonists of the G-protein coupled receptor 7 (GPR7). [Related pubchem assays: 1952 (Screening assay (GPR7 antagonists).), 1880 (Summary AID.)]; format: functional
# T1 sequence (P48145 whole entry): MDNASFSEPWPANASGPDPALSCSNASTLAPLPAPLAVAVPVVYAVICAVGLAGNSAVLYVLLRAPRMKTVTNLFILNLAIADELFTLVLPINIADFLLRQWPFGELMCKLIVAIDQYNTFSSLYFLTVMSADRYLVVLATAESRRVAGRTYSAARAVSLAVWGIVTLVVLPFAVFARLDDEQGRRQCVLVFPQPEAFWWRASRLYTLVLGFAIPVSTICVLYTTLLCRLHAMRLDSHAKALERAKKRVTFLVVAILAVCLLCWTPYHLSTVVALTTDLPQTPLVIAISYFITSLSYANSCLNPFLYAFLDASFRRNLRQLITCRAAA
# [3] = biological target: Protein-tyrosine kinase 2-beta (Homo sapiens, UniProt Q14289);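 further: potency of inhibitors of PYK2 kinase phosphorylation of poly-GT substrate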
# [4] = Luminescence Cell-Based Dose Confirmation HTS to Identify Activators of 5'UTR Stem-Loop Driven Alpha-Synuclein mRNA Translation in H4 Neuroglioblastoma Cells. [Related pubchem assays: 1829 (Project Summary), 1814 (Primary HTS)]; format: functional
# [5] = Luminescence Cell-Based Dose Confirmation to Identify Activators of 5'UTR Stem-Loop Driven Alpha-Synuclein mRNA Translation in H4 Neuroglioblastoma Cells. [Related pubchem assays: 1829 (Project Summary), 1814 (Primary HTS)]; format: functional
# [6] = biological target: T2, Histone-lysine N-methyltransferase NSD2 (Homo sapiens, UniProt O96028); format: biochemical
# T2 sequence (O96028 whole entry): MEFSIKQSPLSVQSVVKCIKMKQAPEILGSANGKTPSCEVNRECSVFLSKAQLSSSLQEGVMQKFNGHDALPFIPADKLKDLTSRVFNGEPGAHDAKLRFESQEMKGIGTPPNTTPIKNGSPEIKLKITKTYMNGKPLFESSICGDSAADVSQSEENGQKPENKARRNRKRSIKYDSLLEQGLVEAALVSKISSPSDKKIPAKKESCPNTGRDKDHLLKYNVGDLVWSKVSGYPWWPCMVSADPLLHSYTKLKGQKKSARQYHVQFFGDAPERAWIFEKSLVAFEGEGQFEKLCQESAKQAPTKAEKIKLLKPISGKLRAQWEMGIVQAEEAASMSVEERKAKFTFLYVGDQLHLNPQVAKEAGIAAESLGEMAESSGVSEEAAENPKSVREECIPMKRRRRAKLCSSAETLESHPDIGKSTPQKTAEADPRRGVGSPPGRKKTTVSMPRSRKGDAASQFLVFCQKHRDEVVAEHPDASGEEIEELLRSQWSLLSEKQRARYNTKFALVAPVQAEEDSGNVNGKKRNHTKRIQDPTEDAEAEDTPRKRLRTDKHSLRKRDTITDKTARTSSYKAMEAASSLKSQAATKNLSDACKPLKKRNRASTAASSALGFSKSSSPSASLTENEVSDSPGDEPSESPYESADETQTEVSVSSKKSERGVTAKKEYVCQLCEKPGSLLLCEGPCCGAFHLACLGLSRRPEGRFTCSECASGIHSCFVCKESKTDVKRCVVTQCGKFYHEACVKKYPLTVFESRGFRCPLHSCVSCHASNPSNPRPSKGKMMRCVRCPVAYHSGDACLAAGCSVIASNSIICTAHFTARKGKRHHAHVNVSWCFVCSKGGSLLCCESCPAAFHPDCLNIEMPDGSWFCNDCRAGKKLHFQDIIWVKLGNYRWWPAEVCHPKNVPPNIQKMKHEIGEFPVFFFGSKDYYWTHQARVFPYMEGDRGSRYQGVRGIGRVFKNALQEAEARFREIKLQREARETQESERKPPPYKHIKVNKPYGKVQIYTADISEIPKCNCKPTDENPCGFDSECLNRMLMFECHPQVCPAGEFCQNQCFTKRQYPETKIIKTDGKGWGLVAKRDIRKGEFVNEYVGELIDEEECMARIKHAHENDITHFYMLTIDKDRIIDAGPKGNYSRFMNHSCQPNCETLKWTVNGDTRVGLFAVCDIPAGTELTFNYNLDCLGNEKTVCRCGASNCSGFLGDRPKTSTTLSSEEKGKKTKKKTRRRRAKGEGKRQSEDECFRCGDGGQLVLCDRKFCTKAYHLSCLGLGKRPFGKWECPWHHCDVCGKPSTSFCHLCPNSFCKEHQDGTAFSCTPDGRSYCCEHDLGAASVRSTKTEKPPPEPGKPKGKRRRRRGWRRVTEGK
# [7] = inhibitors of intracellular T. cruzi replication, confirmation, NIH3T3 host cells, beta-gal luminescence (AID 2044); format: functional, cell-based;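 further: intracellular parasites grown in NIH/3T3 mouse fibroblasts as host cells; luminescent beta-galactosidase reporter signal from transgenic T. cruzi replicating inside host cells; inhibitors lower the luminescence signal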
# [8] = cytotoxicity toward NIH3T3 fibroblasts, dose response, counter-screen, cell-based, ATP luminescence, mouse fibroblasts (AID 2010); format: functional;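 further: cells exposed to compound for about 90 hours before reading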
# H4 = assay: Luminescence Cell-Based Dose Response HTS to Identify Activators of 5'UTR Stem-Loop Driven Prion Protein mRNA Translation in H4 Neuroglioblastoma Cells. [Related pubchem assays: 1829 (Project Summary), 1814 (Primary HTS)]; format: functional; conditions: Homo sapiens
# [9] = Luminescence Cell-Based Dose Response to Identify Activators of 5'UTR Stem-Loop Driven Prion Protein mRNA Translation in H4-C Neuroglioblastoma Cells. [Related pubchem assays: 1829 (Project Summary), 1814 (Primary HTS)]; format: functional
# Genome polyprotein = Genome polyprotein (dengue virus type 2, UniProt P29990); assay: Dengue-2 NS5 methyltransferase inhibitors, primary screen, biochemical, confirmation dose response (AID 588689); format: functional
# [10] = Luminescence Cell-Based Dose Response to Identify Activators of Luciferase Translation or Activity in H4-C Neuroglioblastoma Cells. [Related pubchem assays: 1829 (Project Summary), 1814 (Primary HTS)]; format: functional
# [11] = Luminescence Cell-Based Dose Response HTS to Identify Activators of Luciferase Translation or Activity in H4 […] Cells. [Related pubchem assays: 1829 (Project Summary), 1814 (Primary HTS)]; format: functional
# Melanin-concentrating hormone receptor 1, sequence (Q99705 whole entry): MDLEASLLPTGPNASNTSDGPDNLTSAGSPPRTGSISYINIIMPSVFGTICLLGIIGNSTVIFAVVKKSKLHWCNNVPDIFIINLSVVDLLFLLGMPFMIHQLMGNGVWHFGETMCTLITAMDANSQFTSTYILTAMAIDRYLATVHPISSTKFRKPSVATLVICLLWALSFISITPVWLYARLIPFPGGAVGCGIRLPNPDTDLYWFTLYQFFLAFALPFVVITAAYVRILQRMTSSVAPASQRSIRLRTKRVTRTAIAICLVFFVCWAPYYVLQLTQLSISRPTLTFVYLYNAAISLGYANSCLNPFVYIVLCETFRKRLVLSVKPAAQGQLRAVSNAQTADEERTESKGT
# Genome polyprotein, sequence (P29990 2492-3391 limits assumed): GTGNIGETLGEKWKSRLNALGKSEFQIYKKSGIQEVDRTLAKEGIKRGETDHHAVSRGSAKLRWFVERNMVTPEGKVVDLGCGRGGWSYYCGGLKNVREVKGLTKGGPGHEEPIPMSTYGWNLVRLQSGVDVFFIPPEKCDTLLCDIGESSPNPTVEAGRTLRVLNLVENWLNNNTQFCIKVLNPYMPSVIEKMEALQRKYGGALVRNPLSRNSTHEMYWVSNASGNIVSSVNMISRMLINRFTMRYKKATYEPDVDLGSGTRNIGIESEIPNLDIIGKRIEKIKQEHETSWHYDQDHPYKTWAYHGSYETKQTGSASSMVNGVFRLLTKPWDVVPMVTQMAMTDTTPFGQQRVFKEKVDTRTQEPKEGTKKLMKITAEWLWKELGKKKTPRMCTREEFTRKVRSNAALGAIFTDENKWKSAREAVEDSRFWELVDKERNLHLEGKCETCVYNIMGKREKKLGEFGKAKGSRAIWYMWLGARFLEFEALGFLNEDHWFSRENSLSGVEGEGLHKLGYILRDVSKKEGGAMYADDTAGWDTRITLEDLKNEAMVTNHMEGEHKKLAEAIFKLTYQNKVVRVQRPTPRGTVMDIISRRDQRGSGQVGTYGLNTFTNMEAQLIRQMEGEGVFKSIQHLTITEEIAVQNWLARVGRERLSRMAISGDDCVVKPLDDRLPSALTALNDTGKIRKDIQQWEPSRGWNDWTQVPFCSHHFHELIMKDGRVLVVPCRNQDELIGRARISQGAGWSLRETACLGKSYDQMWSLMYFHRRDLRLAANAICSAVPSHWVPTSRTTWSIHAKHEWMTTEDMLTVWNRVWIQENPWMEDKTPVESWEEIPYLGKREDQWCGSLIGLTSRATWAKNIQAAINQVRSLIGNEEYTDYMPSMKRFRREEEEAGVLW
# Ephrin type-A receptor 4, sequence (Q03137 whole entry): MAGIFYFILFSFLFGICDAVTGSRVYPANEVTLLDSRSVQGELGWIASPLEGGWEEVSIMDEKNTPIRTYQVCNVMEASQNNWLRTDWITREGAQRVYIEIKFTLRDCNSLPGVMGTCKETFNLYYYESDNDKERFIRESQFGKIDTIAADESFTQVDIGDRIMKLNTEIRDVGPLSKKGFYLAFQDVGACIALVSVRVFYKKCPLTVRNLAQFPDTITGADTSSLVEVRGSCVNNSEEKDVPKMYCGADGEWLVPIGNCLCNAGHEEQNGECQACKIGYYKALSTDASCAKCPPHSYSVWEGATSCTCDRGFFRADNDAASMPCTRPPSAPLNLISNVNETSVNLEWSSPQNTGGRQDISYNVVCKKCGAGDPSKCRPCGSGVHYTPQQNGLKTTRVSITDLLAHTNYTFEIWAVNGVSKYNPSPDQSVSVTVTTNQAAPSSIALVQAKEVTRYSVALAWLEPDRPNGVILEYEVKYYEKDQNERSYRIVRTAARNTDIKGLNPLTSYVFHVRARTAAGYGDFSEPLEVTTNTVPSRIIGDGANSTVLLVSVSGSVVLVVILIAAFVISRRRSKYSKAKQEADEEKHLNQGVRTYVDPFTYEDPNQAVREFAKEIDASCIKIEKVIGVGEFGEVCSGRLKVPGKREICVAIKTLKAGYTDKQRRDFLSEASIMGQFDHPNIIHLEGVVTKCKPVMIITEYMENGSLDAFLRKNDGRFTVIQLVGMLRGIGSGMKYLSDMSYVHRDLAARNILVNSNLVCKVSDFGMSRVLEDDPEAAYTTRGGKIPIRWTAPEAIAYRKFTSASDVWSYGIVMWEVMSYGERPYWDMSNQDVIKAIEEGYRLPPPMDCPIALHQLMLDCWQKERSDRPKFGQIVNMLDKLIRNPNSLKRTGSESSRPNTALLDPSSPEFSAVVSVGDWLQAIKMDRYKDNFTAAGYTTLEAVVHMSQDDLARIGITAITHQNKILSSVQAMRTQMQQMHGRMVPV
# Protein-tyrosine kinase 2-beta, sequence (Q14289 whole entry): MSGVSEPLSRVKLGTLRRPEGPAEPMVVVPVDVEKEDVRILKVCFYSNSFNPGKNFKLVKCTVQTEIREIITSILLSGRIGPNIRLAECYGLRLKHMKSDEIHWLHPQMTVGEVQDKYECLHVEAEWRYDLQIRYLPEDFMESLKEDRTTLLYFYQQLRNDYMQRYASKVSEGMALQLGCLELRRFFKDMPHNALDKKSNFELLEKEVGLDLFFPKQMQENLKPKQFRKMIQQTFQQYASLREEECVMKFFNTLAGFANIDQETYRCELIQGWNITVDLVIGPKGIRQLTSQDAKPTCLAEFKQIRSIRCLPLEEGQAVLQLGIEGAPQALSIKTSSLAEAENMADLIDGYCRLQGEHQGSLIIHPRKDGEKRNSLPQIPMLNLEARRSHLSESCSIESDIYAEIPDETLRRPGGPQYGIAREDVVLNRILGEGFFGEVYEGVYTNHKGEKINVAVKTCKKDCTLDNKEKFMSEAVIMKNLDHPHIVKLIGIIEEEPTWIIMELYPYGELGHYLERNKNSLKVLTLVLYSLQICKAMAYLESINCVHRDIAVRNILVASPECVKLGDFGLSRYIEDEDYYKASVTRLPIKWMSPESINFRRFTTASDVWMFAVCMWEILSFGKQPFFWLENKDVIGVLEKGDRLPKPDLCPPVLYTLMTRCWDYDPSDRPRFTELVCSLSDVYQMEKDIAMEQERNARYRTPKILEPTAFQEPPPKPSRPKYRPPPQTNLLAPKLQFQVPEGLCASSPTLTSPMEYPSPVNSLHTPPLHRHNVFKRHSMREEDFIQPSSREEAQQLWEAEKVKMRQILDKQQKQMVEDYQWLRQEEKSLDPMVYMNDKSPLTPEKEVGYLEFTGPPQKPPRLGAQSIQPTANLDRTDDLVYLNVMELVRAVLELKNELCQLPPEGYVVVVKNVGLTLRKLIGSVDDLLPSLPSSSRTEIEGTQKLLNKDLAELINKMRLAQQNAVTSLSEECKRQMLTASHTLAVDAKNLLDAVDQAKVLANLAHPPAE
structure (smiles),measurement,setting,value
CCn1c(COc2ccccc2C)nnc1SCC(=O)Nc1cc(C)on1,IC50,Ephrin type-A receptor 4,> 100 µM (not active)
COc1ccc(C2CC2/C(=N/O)c2ccccn2)cc1 (stereo unspecified),IC50,[1],> 43.8 µM (not active)
same,IC50,[2],> 43.8 µM (not active)
COc1ccc(C(CNC(=O)COc2ccc(Cl)c(C)c2)N2CCCCC2)cc1 (stereo unspecified),IC50,[1],11.3 µM (not active)
same,IC50,[2],> 4.87 µM (active)
O=C1Nc2ccc(NS(=O)(=O)c3cccs3)c3cccc1c23,IC50,[3],5.32 µM (active)
O=C(O)c1cccc(NC2=C(Cl)C(=O)c3ccccc3C2=O)c1,EC50,[4],1.44 µM (active)
same,EC50,[5],> 12 µM (not active)
same,AC50,[6],5.2 µM (active)
same,EC50,[7],> 30 µM (not active)
same,EC50,[8],5.21 µM (active)
same,EC50,H4,6.76 µM (active)
same,EC50,[9],> 12 µM (not active)
same,IC50,Genome polyprotein,15.6 µM (active)
same,EC50,[10],0.149 µM (active)
same,EC50,[11],< 0.1 µM (active)
